Measured values reported in US20090069302A1 (SMITHKLINE BEECHAM CORPORATION, priority 2006, published 2009).

Biological target: T1, AXOR109 (Homo sapiens, UniProt Q8TDU6)
T1 construct: expressed in transfected cells; host or cells: melanophore cells, transfected by electroporation
T1 sequence (Q8TDU6 1-330): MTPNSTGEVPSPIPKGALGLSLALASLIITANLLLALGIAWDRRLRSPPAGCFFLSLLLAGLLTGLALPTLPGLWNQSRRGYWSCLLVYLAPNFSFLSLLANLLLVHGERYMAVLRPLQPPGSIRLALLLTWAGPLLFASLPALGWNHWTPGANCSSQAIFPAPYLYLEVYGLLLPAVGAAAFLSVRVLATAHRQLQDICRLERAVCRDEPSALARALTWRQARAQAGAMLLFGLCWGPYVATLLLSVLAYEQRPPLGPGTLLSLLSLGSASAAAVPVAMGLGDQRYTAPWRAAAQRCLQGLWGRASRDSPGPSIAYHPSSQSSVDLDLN
Test: Human AXOR109/Melanophore Assay
Type: cell-based
Settings: melanophore assay; for Emax: 1 h; for EC50: AXOR109 transfected melanophores
Method: AXOR109 is a Gs-coupled receptor and therefore increases intracellular cAMP leading to melanosome dispersion. Compounds of the present invention were characterized in a melanophore assay as described in Jayawickreme C K, et al., Current Protocols in Pharmacology (2005) 12.9.1-12.9.16. Briefly, melanophore cells are transfected by electroporation with AXOR109 expressing cDNA. Cells are then plated in 384 well clear bottom plates at 8E3 cells per well in 50 μl of conditioned fibroblast media (CFM). Compounds to be tested are serially diluted 3-fold in DMSO and further diluted 1:100 with melanophore assay buffer (MAB)+10 nM Melatonin to yield 11 point concentration response curves. Following 2 hour incubation with MAB+1% DMSO+10 nM Melatonin, initial transmittance is read on a TwisterII/Spectramax plate reader. Compounds are then added to the cells and incubated for 1 hour, and final transmittance is read as before. Results are compared to vehicle (MAB+1% DMSO+10 nM Melatonin) and to a positive control (MAB+1% DMSO+10 nM Melatonin+200 nM alpha-MSH). Data are calculated for each well as follows: 1-(Transmitance-final/Transmitance-initial). Each well result is then normalized to alpha-MSH, the system max control for Gs/Gq coupled receptors using the following equation: (ObjX−Control1)/(Control2−Control1)*100. The percent system max is used to generate the pEC50 using the equation: y=((Vmax*x̂n)/(K̂n+x̂n))+Y2. Acceptable Z-prime values should be >0.4. Compounds of the present invention have a pEC50≧5.0 in the above described assay.

[1] = normalized to alpha-MSH system max

SMILES: COc1ccc(S(=O)(=O)N(C)CCN(C)S(=O)(=O)c2ccc3c(c2)OCCO3)cc1OC [Example 13, N-{2-[{[3,4-bis(methyloxy)phenyl]sulfonyl}(methyl)amino]ethyl}-N-methyl-2,3-dihydro-1,4-benzodioxin-6-sulfonamide]
- Emax [1]: 51 to 75%
- EC50: 1260 to 10000 nM

SMILES: COc1ccc(S(=O)(=O)N(C)CCN(C)S(=O)(=O)c2ccc3c(c2)n(C)c(=O)n3C)cc1OC [Example 65, N-methyl-N-{2-[{[3,4-bis(methyloxy)phenyl]sulfonyl}(methyl)amino]ethyl}-1,3-dimethyl-2-oxo-2,3-dihydro-1H-benzimidazole-5-sulfonamide]
- Emax [1]: 51 to 75%
- EC50: 1260 to 10000 nM

SMILES: COc1ccc(S(=O)(=O)N2C[C@@H](C)N(S(=O)(=O)c3ccc(OC)c(OC)c3)[C@@H](C)C2)cc1OC [Example 20, 1,4-bis{[3,4-bis(methyloxy)phenyl]sulfonyl}-2,6-cis-dimethylpiperazine]
- EC50: 1260 to 10000 nM
- % Max [1]: ** (“**” = 51% to 75%)

SMILES: COc1ccc(S(=O)(=O)N[C@@H]2CCN(S(=O)(=O)c3ccc(OC)c(OC)c3)C2)cc1OC [Example 77, N-((3R)-1-{[3,4-bis(methyloxy)phenyl]sulfonyl}-3-pyrrolidinyl)-3,4-bis(methyloxy)benzenesulfonamide]
- Emax [1]: 76 to 100%
- EC50: 1260 to 10000 nM

SMILES: COc1ccc(S(=O)(=O)N2CCC(N(CC3CCC3)S(=O)(=O)c3ccc(OC)c(OC)c3)C2)cc1OC (stereo not shown) [Example 58, N-(1-{[3,4-bis(methyloxy)phenyl]sulfonyl}-3-pyrrolidinyl)-N-(cyclobutylmethyl)-3,4-bis(methyloxy)benzenesulfonamide]
- Emax [1]: 76 to 100%
- EC50: 1260 to 10000 nM

SMILES: COc1ccc(S(=O)(=O)N2CCCCC(N(C)S(=O)(=O)c3ccc(OC)c(OC)c3)C2)cc1OC (stereo not shown) [Example 92]
- Emax [1]: 51 to 75%
- EC50: 1260 to 10000 nM

SMILES: COc1ccc(S(=O)(=O)N2CC[C@H](N(C)S(=O)(=O)c3ccc(OC)c(OC)c3)C2)cc1OC (stereo in doubt) [Example 84]
- Emax [1]: 51 to 75%
- EC50: 1260 to 10000 nM

SMILES: COc1ccc(S(=O)(=O)N2CCN(S(=O)(=O)c3ccc(OC)c(OC)c3)c3ccccc32)cc1OC [Example 83]
- Emax [1]: 51 to 75%
- EC50: 126 to 1000 nM

SMILES: COc1ccc(S(=O)(=O)N(C)C(C)C(C)N(C)S(=O)(=O)c2ccc(OC)c(OC)c2)cc1OC (stereo not shown) [Example 55, N,N′-2,3-butanediylbis[N-methyl-3,4-bis(methyloxy)benzenesulfonamide]]
- Emax [1]: 51 to 75%
- EC50: 126 to 1000 nM

SMILES: COc1ccc(S(=O)(=O)N2CCCN(S(=O)(=O)c3ccc4c(c3)OCCO4)CC2)cc1OC [Example 8, 1-{[3,4-bis(methyloxy)phenyl]sulfonyl}-4-(2,3-dihydro-1,4-benzodioxin-6-ylsulfonyl)hexahydro-1H-1,4-diazepine]
- Emax [1]: 51 to 75%
- EC50: 1260 to 10000 nM

SMILES: COc1ccc(S(=O)(=O)N2CCC(=O)N(S(=O)(=O)c3ccc(OC)c(OC)c3)CC2)cc1OC [Example 28, 1,4-bis{[3,4-bis(methyloxy)phenyl]sulfonyl}hexahydro-5H-1,4-diazepin-5-one]
- Emax [1]: 51 to 75%
- EC50: 126 to 1000 nM

SMILES: COc1ccc(S(=O)(=O)N2CCN(S(=O)(=O)c3ccc(OC)c(OC)c3)CC2)cc1F [Example 1, 1-{[3,4-bis(methyloxy)phenyl]sulfonyl}-4-{[3-fluoro-4-(methyloxy)phenyl]sulfonyl}piperazine]
- EC50: 126 to 1000 nM

SMILES: COc1ccc(S(=O)(=O)N2CCN(S(=O)(=O)c3ccc(OC)c(OC)c3)CC2)cc1OC [Example 4, 1,4-bis{[3,4-bis(methyloxy)phenyl]sulfonyl}piperazine]
- Emax [1]: 51 to 75%
- EC50: 1260 to 10000 nM

SMILES: COc1ccc(S(=O)(=O)N2C[C@H](C)N(S(=O)(=O)c3cccc4cccnc34)C[C@@H]2C)cc1OC [Example 69, 8-[((2S,5S)-4-{[3,4-bis(methyloxy)phenyl]sulfonyl}-2,5-dimethyl-1-piperazinyl)sulfonyl]quinoline]
- Emax [1]: 76 to 100%
- EC50: 1260 to 10000 nM

SMILES: COc1ccc(S(=O)(=O)NCCNS(=O)(=O)c2ccc(OC)c(OC)c2)cc1OC [Example 26, N,N′-1,2-ethanediylbis[3,4-bis(methyloxy)benzenesulfonamide]]
- Emax [1]: 76 to 100%
- EC50: 1260 to 10000 nM

SMILES: COc1ccc(S(=O)(=O)N2CCN(S(=O)(=O)c3ccc(OC)c(OC)c3)C(=O)C2=O)cc1OC [Example 27, 1,4-bis{[3,4-bis(methyloxy)phenyl]sulfonyl}-2,3-piperazinedione]
- Emax [1]: 51 to 75%
- EC50: 1260 to 10000 nM

SMILES: COc1ccc(S(=O)(=O)N2C[C@H](C)N(S(=O)(=O)c3ccc(OC)c(OC)c3)C[C@H]2C)cc1OC [Example 22, trans-1,4-bis{[3,4-bis(methyloxy)phenyl]sulfonyl}-2,5-dimethylpiperazine]
- Emax [1]: 51 to 75%
- EC50: 1260 to 10000 nM

SMILES: COc1ccc(S(=O)(=O)N2[C@H](C)CN(S(=O)(=O)c3ccc(OC)c(OC)c3)C[C@@H]2C)cc1O [Example 38, 5-[(4-{[3,4-bis(methyloxy)phenyl]sulfonyl}-2,6-cis-dimethyl-1-piperazinyl)sulfonyl]-2-(methyloxy)phenol]
- Emax [1]: 51 to 75%
- EC50: 1260 to 10000 nM

SMILES: COc1ccc(S(=O)(=O)N2CCN(S(=O)(=O)c3ccc(OC)c(OC)c3)[C@@H](C)[C@H]2C)cc1OC [Example 40, 1,4-bis{[3,4-bis(methyloxy)phenyl]sulfonyl}-2,3-dimethylpiperazine]
- Emax [1]: 51 to 75%
- EC50: 126 to 1000 nM

SMILES: COc1ccc(S(=O)(=O)N2CCN(S(=O)(=O)c3ccc(OC)c(OC)c3)CC(F)(F)C2)cc1OC [Example 53, 1,4-bis{[3,4-bis(methyloxy)phenyl]sulfonyl}-6,6-difluorohexahydro-1H-1,4-diazepine]
- Emax [1]: 51 to 75%
- EC50: 126 to 1000 nM

SMILES: COc1ccc(S(=O)(=O)N2C[C@H](C)N(S(=O)(=O)c3ccc(OC)c(OC)c3)[C@@H](C)C2)cc1OC [Example 21, (2S,6S)-1,4-bis{[3,4-bis(methyloxy)phenyl]sulfonyl}-2,6-dimethylpiperazine]
- Emax [1]: 51 to 75%
- EC50: 126 to 1000 nM

SMILES: CCCN([C@H]1CCN(S(=O)(=O)c2ccc(OC)c(OC)c2)C1)S(=O)(=O)c1ccc(OC)c(OC)c1 [Example 61, N-((3S)-1-{[3,4-bis(methyloxy)phenyl]sulfonyl}-3-pyrrolidinyl)-3,4-bis(methyloxy)-N-propylbenzenesulfonamide]
- Emax [1]: 76 to 100%
- EC50: 1260 to 10000 nM

SMILES: CCc1cc(S(=O)(=O)N(C)CCN(C)S(=O)(=O)c2ccc(OC)c(OC)c2)ccc1OC [Example 43, N-{2-[{[3,4-bis(methyloxy)phenyl]sulfonyl}(methyl)amino]ethyl}-N-methyl-3-ethyl-4-(methyloxy)benzenesulfonamide]
- Emax [1]: 0 to 50%
- EC50: 126 to 1000 nM

SMILES: COc1ccc(S(=O)(=O)N2C[C@@H](C)N(S(=O)(=O)c3ccc(OC)c(OC)c3)[C@@H](C)C2)cc1F [Example 32, 1-{[3,4-bis(methyloxy)phenyl]sulfonyl}-4-{[3-fluoro-4-(methyloxy)phenyl]sulfonyl}-2,6-cis-dimethylpiperazine]
- Emax [1]: 51 to 75%
- EC50: 126 to 1000 nM

SMILES: COc1ccc(S(=O)(=O)N(C)CC(C)N(C)S(=O)(=O)c2ccc(OC)c(OC)c2)cc1OC (stereo not shown) [Example 44, N,N′-1,2-propanediylbis[N-methyl-3,4-bis(methyloxy)benzenesulfonamide]]
- Emax [1]: 51 to 75%
- EC50: 126 to 1000 nM

SMILES: CCCN(C1CCN(S(=O)(=O)c2ccc(OC)c(OC)c2)C1)S(=O)(=O)c1ccc(OC)c(OC)c1 (stereo not shown) [Example 56, N-(1-{[3,4-bis(methyloxy)phenyl]sulfonyl}-3-pyrrolidinyl)-3,4-bis(methyloxy)-N-propylbenzenesulfonamide]
- Emax [1]: 0 to 50%
- EC50: 126 to 1000 nM

SMILES: COc1ccc(S(=O)(=O)N2CCCN(S(=O)(=O)c3ccc(OC)c(OC)c3)CC2)cc1F [Example 7, 1-{[3,4-bis(methyloxy)phenyl]sulfonyl}-4-{[3-fluoro-4-(methyloxy)phenyl]sulfonyl}hexahydro-1H-1,4-diazepine]
- Emax [1]: 0 to 50%
- EC50: 1260 to 10000 nM

SMILES: COc1ccc(S(=O)(=O)N2CCC(NS(=O)(=O)c3cccc4cccnc34)C2)cc1OC (stereo not shown) [Example 16, N-(1-{[3,4-bis(methyloxy)phenyl]sulfonyl}-3-pyrrolidinyl)-8-quinolinesulfonamide]
- EC50: 1260 to 10000 nM

SMILES: COc1ccc(S(=O)(=O)N2C[C@H](C)N(S(=O)(=O)c3ccc(OC)c(OC)c3)C[C@@H]2C)cc1F [Example 67, (2S,5S)-1-{[3,4-bis(methyloxy)phenyl]sulfonyl}-4-{[3-fluoro-4-(methyloxy)phenyl]sulfonyl}-2,5-dimethylpiperazine]
- EC50: 126 to 1000 nM
